Assay results published in publication PMC9695592, “Phenotypic Evaluation of Nucleoside Analogues against Trypanosoma cruzi Infection: In Vitro and In Vivo Approaches” (Molecules, 2022).

Tests used:
[1] = tested on: T. cruzi (Y strain) in male Swiss mice; assay: Mouse model of acute T. cruzi infection (Y strain); assay type: in vivo; details: for parasite DNA amplification in blood (qPCR): 77 dpi, heart puncture, derivatives 25 mg/kg/day, Bz 100 mg/kg/day, 5 days oral, limit of detection 0.47 eq par/mL; for protection against loss of weight induced by acute infection: 25 mg/kg/day oral, 5 days; for reduction of parasitemia: gavage once a day, 5 consecutive days, 25 mg/kg/day, from parasitemia onset, p < 0.05
Experimental: Thus, a proof-of-concept study was performed in T. cruzi-infected mice. The infected animals were treated (gavage, once a day) for 5 consecutive days with the derivatives (25 mg/kg/day) or Bz (100 mg/kg/day), starting drug administration at the parasitemia onset, usually on day 5 dpi, following doses and protocols already established for the other nucleoside derivatives.
The synthesis and characterization of FH11706, FH10714 [46] and FH8513 [19] were previously reported. Benznidazole (Bz) was purchased from Laboratório Farmacêutico do Estado de Pernambuco (Brazil). […] For in vivo assays, Bz was formulated using 3% Tween 80 in distilled water and the nucleoside analogues in 10% (v/v) EtOH, with 1.1 mM aqueous citrate buffer pH 3.2 and dosed according to animal body weight.
Male Swiss Webster mice (18−20 g; 4−5 weeks of age) were obtained from the Institute of Sciences and Technologies in Biomodels (ICTB-FIOCRUZ), housed with a maximum of 5 animals per cage and kept in a specific pathogen-free (SPF) room at 20−24 °C under a 12 h light and 12 h dark cycle. All animals received sterilized water and food ad libitum. The animals were acclimatized for 7 days before the experiments. To detect possible toxic events, nucleoside analogues and Bz were orally given to non-infected Swiss male mice (n = 2) for 5 consecutive days, with a fixed dose of 50 mg/kg (0.1 mL). On day 5, all animals were euthanized to inspect toxic and subtoxic symptoms. For a proof-of-concept study, animals were infected by i.p. administration of 10^4 bloodstream trypomastigotes (Y strain), and drug administration started at the onset of parasitemia (6 dpi), only using mice with detectable parasitemia. Control mice groups were age-matched and housed under identical conditions. The following experimental groups were used (3 mice per group): untreated (infected vehicle-treated control) and treated (infected and treated with derivatives or with benznidazole). The derivatives and Bz were given orally (gavage) for five consecutive days at 25 mg/kg and 100 mg/kg, respectively, once a day. Parasitemia levels in T. cruzi assays were individually checked by light microscopic counting of parasites in 5 μL of blood, as described. For blood qPCR analysis, 500 µL of blood was diluted in a 1:2 volume of guanidine solution and heated for 60 s in boiling water, followed by DNA purification using High Pure PCR Template Preparation Kit (Roche Applied Science) and quantitative real-time multiplex PCR assays. TaqMan probes were used for quantification of both T. cruzi satellite nuclear DNA and internal amplification control (IAC), as described in Duffy et al. (2013), using the following primer and prober sets: Cruzi1 5′-[…]-3′ (750 nM), Cruzi2 5′-[…]-3′ (750 nM), Cruzi3 FAM-5′-CACACACTGGACACCAA-3′-NFQ-MGB (50 nM), IAC Fw 5′-[…]-3′ (100 nM), IAC Rv 5′-[…]-3′ (100 nM) and IAC Tq 5′-VIC-AGCATCTGTTCTTGAAGGT-NFQ-MGB-3′ (50 nM). The cycling conditions were a first step of 10 min at 95 °C, followed by 40 cycles at 95 °C for 15 s and 58 °C for 1 min. The amplifications were carried out in a Quantstudio 3 real-time PCR system (Applied Biosystems), with the threshold set at 0.02 in all runs. Standard curves were constructed for absolute quantification through the serial dilution of total DNA, ranging from 10^5 parasite equivalent to 1 parasite equivalent per mL of blood, obtained with a negative blood sample in guanidine-EDTA. Parasite load was expressed as equivalent of parasite DNA per mL of blood.

[2] = tested on: intracellular forms of T. cruzi (Y strain) in 3D H9C2; assay: Activity against T. cruzi (Y strain) infection of H9C2 spheroids (3D); assay type: cell-based, Trypanosoma cruzi; details: 10 µM, seven days of incubation, 95% confidence interval in brackets
Description: L929 cell lines were used to evaluate the effect of the nucleoside derivatives on the cellular viability of mammalian host cells and to assess their activity against intracellular forms of T. cruzi (Tulahuen strain expressing E. coli β-galactosidase gene, DTU VI) as reported. 2D and 3D culture systems of rat cardiomyoblast cell lines (H9C2(2-1)) were used to evaluate cardiotoxicity and to test the derivatives’ activity on intracellular forms (Y strain, DTU II). In all assays, the cell cultures were maintained at 37 °C under an atmosphere of 5% CO2.
Bloodstream trypomastigotes of the Y strain (DTU II) were obtained by cardiac puncture of infected Swiss Webster mice on the parasitemia peak to perform drug sensitivity assays. Trypomastigote forms of the Tulahuen-β gal strain were collected from the supernatant of previously infected L929 cell cultures (host/parasite cell ratio 10:1). The intracellular forms T. cruzi were studied by the infection of L929 and H9C2 (2D and 3D) cell cultures infected for 48 and 24 h with trypomastigotes of Tulahuen-β gal and Y strains, respectively. The Leishmania mexicana-Cas9 T7 strain (LmexCas9) was derived from L. mexicana WT promastigotes by expression of the Streptococcus pyogenes Cas9 nuclease gene ‘Cas9′ and maintained on 32 μg/mL hygromycin [51]. This strain and the derived strains Cas9^ΔNT1 and Cas9^ΔNT1+TcrNT2 were cultured in HOMEM medium supplemented with 10% of FBS and 1% Penicillin-Streptomycin antibiotic in unvented flasks at 25 °C [52]. The Cas9^ΔNT1 strain is identical to Cas9 except that the LmexNT1.1/NT1.2 locus encoding the L. mexicana adenosine/ pyrimidine transporters was excised using Cas9 [17, 40]. Cas9^ΔNT1+TcrNT2 is the further modification of that strain by the expression of the T. cruzi nucleoside transporter 2 (TcrNT2) gene in it, using the vector pNUS-HcN [53]. Appropriate antibiotics were added for the selection and maintenance of transfectants.
3D cultures of H9C2 cells were obtained as described, and 24 h after plating, the spheroids were infected (or not, control) with bloodstream trypomastigotes of T. cruzi (strain Y), using 20 parasites per host cell. After 24 h, infected spheroids were incubated with 10 µM of the tested compounds for seven days, and then the spheroids were transferred one by one to an Eppendorf tube, with the aid of a pestle they were mechanically macerated following an established protocol with minor adaptations. The parasite load was quantified by light microscopy and qPCR [54], and the results were expressed as % of parasite death. The data results from two independent experiments performed in at least duplicate.

SMILES	parasite DNA amplification in blood (qPCR) [1] [eq par/mL]	% of Death Rate by Light Microscopy Quantification 3D [2]	% of Death Rate by qPCR 3D [2]	protection against loss of weight induced by acute infection [1]	reduction of parasitemia [1] [%]	sterile (parasitological) cure in mice ([1]; oral once a day for 5 days (derivatives 25 mg/kg), blood qPCR)
O=C(Cn1ccnc1[N+](=O)[O-])NCc1ccccc1 [Bz, Benznidazole, reference compound]	0.187 ± 0.082	98.4 (98.1 to 98.7) %	100%			
Nc1ncnc2c1c(-c1ccc(Cl)c(Cl)c1)cn2[C@@H]1O[C@H](CO)C[C@H]1O [FH8513, 7-(3,4-dichlorophenyl)-3′-deoxytubercidin]	0.287 ± 0.017	83.8 (67.5 to 100) %	94 (90 to 98) %	strongly protected	99.48	
Nc1ncnc2c1c(-c1ccc(Cl)c(F)c1)cn2[C@@H]1O[C@H](CO)[C@@H](O)[C@H]1O [FH10714, 7-(3-fluoro,4-chlorophenyl)tubercidin]	0.046 ± 0.038	93.5 (93.46 to 93.54) %	67 (38 to 96) %		99.58	incapable to promote a parasitological cure
Nc1ncnc2c1c(-c1ccc(F)c(F)c1)cn2[C@@H]1O[C@H](CO)[C@@H](O)[C@H]1O [FH11706, 7-(3,4-Difluorophenyl)tubercidin]	0.038 ± 0.016	91.6 (86.2 to 97) %	85 (79 to 91) %	strongly protected	98.4	
